Reference: patent US8008283B2, “Methods and compositions for the treatment of neuropsychiatric disorders” (Neurotherapeutics Pharma, Inc., priority 2005, dated 2011)

Experiments:
synchronized discharges = conditions: Hochman et al. Science 270:99-102, 1995; cited from earlier work
[1] = system: urethane-anesthetized rats; assay: kainic acid-evoked electrical status epilepticus in urethane-anesthetized rats (Example 70); format: in vivo, rat
Method: Body temperature was monitored using a rectal temperature probe and maintained at 35-37° C. with a heating pad; heart rate (EKG) was continuously monitored. The jugular vein was cannulated on one side for intravenous drug administration. Rats were placed in a Kopf stereotaxic device (with the top of the skull level), and a bipolar stainless-steel microelectrode insulated to 0.5 mm of the tip was inserted to a depth of 0.5-1.2 mm from the cortical surface to record electroencephalographic (EEG) activity in the fronto-parietal cortex. In some experiments, a 2M NaCl-containing pipette was lowered to a depth of 2.5-3.0 mm to record hippocampal EEG. Data were stored on VHS videotape and analyzed off-line.
Following the surgical preparation and electrode placement, animals were allowed to recover for 30 minutes before the experiments were initiated with an injection of kainic acid (10-12 mg/kg i.v.). […] Experiments were terminated with the intravenous administration of urethane. Animal care was in accordance with NIH guidelines and approved by the University of Washington Animal Care Committee.

[2] = system: hippocampal slices, areas CA1 and CA3
Method: Hippocampal slices were prepared from Sprague-Dawley adult rats as described previously. Transverse hippocampal slices 100 μm thick were cut with a vibrating cutter. Slices typically contained the entire hippocampus and subiculum. After cutting, slices were stored in an oxygenated holding chamber at room temperature for at least one hour before recording.
Sharp-electrodes for intracellular recordings from CA1 and CA3 pyramidal cells were filled with 4 M potassium acetate. Field recordings from the CA1 and CA3 cell body layers were acquired with low-resistance glass electrodes filled with 2 M NaCl. For stimulation of the Schaffer collateral or hilar pathways, a small monopolar tungsten electrode was placed on the surface of the slice. Spontaneous and stimulation-evoked activities from field and intracellular recordings were digitized (Neurocorder, Neurodata Instruments, New York, N.Y.) and stored on videotape. AxoScope software (Axon Instruments) on a personal computer was used for off-line analysis of data.
In some experiments, normal or low-chloride medium was used containing bicuculline.
After placement in the interface chamber, slices were superfused at approximately 1 ml/min. At this flow-rate, it took 8-10 minutes for changes in the perfusion media to be completed. All of the times reported here have taken this delay into account and have an error of approximately ±2 minutes.
Single electrical stimuli were delivered to the Schaffer collaterals, midway between areas CA1 and CA3, every 30 seconds so that the field responses in areas CA1 and CA3 could be monitored throughout the duration of each experiment.

rats = assay: contextual fear conditioning in rats (freezing); format: in vivo, rat; conditions: I.V. in DMSO, furosemide 100 mg/kg, bumetanide 50 mg/kg; compared with vehicle alone; FIG. 5
Method: Contextual fear conditioning involves pairing an aversive event, in this case moderate foot shock, with a distinctive environment. The strength of the fear memory is assessed using freezing, a species-typical defensive reaction in rats, marked by complete immobility, except for breathing. […] However, if they are allowed to explore the distinctive environment sometime before the immediate shock, they show intense anxiety and fear when placed back into the same environment. We can take advantage of this fact and, by procedurally dividing contextual fear conditioning into two phases, we can separately study effects of treatments on memory for the context (specifically a hippocampus based process) from learning the association between context and shock or experiencing the aversiveness of the shock (which depend upon emotional response circuitry including amygdala). […] The experiment employed 24 rats. […] Each rat was again placed into the same environment for 8 min during which time freezing was measured, as an index of Pavlovian conditioned fear. […] Measurement of freezing was accomplished through an overhead video camera connected to the microcomputer and was automatically scored using a specialty piece of software, FreezeFrame (OER Inc., Reston, Va.). Total freezing time was analyzed in a one-way analysis of variance (ANOVA) test, with drug dose as the […] factor.

[3] = co-treatment with an NMDA receptor antagonist, non-NMDA receptor and Ca2+ channel antagonists together with furosemide; Collins et al. 1998; cited from earlier work
rat hippocampal slices = assay: spontaneous epileptiform burst discharges across a spectrum of in vitro models in hippocampal slices (Example 69); format: cell-based; conditions: for spontaneous burst discharges, CA3 and CA1: high-K+ (10 mM) medium
Method: Sprague-Dawley rats (males and females; 25-35 days old) were decapitated, the top of the skull was rapidly removed, and the brain chilled with ice-cold oxygenated slicing medium. […] A hemisphere of brain containing hippocampus was blocked and glued (cyanoacrylic adhesive) to the stage of a Vibroslicer (Frederick Haer, Brunsick, Me.). […] In the recording chamber, the slices were perfused with oxygenated recording medium at 34-35° C. All animal procedures were conducted in accordance with NIH and University of Washington animal care guidelines.
In most slice experiments, simultaneous extracellular field electrode recordings were obtained from CA1 and CA3 areas. A bipolar tungsten stimulating electrode was placed on the Schaffer collaterals to evoke synaptically-driven field responses in CA1. Stimuli consisted of 100-300 μsec duration pulses at an intensity of four times the population-spike threshold. After discharges were evoked by a 2 second train of such stimuli delivered at 60 Hz.

hippocampal slices = conditions: Pearce, Neuron 10:189, 1993; cited from earlier work

## NS(=O)(=O)c1cc(C(=O)O)c(NCc2ccco2)cc1Cl [furosemide]
Synchronized discharges
  synchronized discharges and hyperexcited synaptic responses: reversibly blocked synchronized discharges without reducing hyperexcited synaptic responses
[1]; 90 minutes after the furosemide injection
  cortical activity: remained near normal baseline levels
[1]; intravenous furosemide, cumulative dose 40-60 mg/kg
  latency of block of seizure activity: 30 to 45 min
[1]; intravenous furosemide, cumulative dose 40-60 mg/kg, kainic acid 10-12 mg/kg i.v.
  seizure activity (EEG): blocked
[2]; 2.5 mM furosemide
  order of cessation of spontaneous bursting in CA1 and CA3: ceased in area CA1 before the bursting ceased in area CA3
[2]; 2.5 mM furosemide or low-chloride medium
  time CA3 continued to discharge after CA1 became silent: 5 to 10 min
[2]; throughout all stages of the experiments
  field responses to stimulation of the Schaffer collaterals: evoked hyperexcited field responses in both the CA1 and CA3 cell body layers
rats
  freezing: significantly less freezing
[3]
  reduction of alcohol-dependent cerebrocortical damage: 75-85%
Rat hippocampal slices; 0-Ca++ experiments, 5 mM furosemide
  latency of block of bursting: 15 to 20 min
Rat hippocampal slices; 200-300 μM 4-aminopyridine
  spontaneous burst discharges: blocked
Rat hippocampal slices; 3 hours of perfusion with 0-Mg++ medium, one hour after addition of furosemide
  anticonvulsant resistant bursts, entorhinal cortex: blocked
Rat hippocampal slices; all experiments
  spontaneous bursting activity in both CA1 and CA3: reversibly blocked
Rat hippocampal slices; all other protocols, 2.5 mM furosemide
  latency of block of bursting: 20 to 60 min
Rat hippocampal slices; bicuculline at 50-100 μM
  spontaneous burst discharges: blocked
Rat hippocampal slices; 2.5 mM furosemide, after 15 minutes of perfusion
  spontaneous burst discharges, CA3 and CA1: increased in magnitude
Rat hippocampal slices; 2.5 mM furosemide, after 45 minutes of perfusion
  spontaneous burst discharges, CA3 and CA1: blocked in a reversible manner
Rat hippocampal slices; removal of calcium plus extracellular chelation (0-Ca++)
  spontaneous burst discharges: blocked
Rat hippocampal slices; removal of magnesium (0-Mg++), 1 hours perfusion
  spontaneous burst discharges: blocked
Hippocampal slices
  latency of block of a component of the inhibitory currents: < 15 min
